Reference: US8193180B2, “N-amino tetrahydrothiazine derivatives, method of manufacture and use” (Women & Infants Hospital, priority 2007, dated 2012)

Legend:
[1] = test system: stage III ovarian cancer; test: Ovarian cancer treatment, patient case (Example 10); type: in vivo, human; details: 10 mg/kg daily orally or IV for 48 days
Experimental: A subject presents with recurrent/progressive stage III ovarian cancer refractory to all other treatments. The subject is treated daily with 10 mg/kg of N-(3-methyl-1,1-dioxo-1,4-thiazinan-4-yl)-1-[3-chloro, 5-bromo coumarin-2-carbonyl] orally or IV for 48 days.

[2] = test system: breast cancer; test: Breast cancer prophylaxis, patient case (Example 8); type: in vivo, human; details: 5 mg/kg daily by tablets for 48 months, BRCA 1 and 2 markers
Experimental: A subject presents normally, but has BRCA 1 and 2 markers as well as a family history of breast cancer. The subject is treated daily with 5 mg/kg of N-(3-methyl-1,1-dioxo-1,4-thiazinan-4-yl)-1-[5,6-dimethoxy coumarin-2-yl]methanimine by tablets for 48 months.

[3] = test system: Stage IV neuroblastoma; test: Treatment of neuroblastoma, patient case (Example 5); type: in vivo, human
Description: A person presents with Stage IV neuroblastoma. […] Upon examination, tumor mass is found reduced by about 50%.

[4] = test system: Stage V Alzheimer's disease; test: Alzheimer treatment, patient case (second Example 10); type: in vivo, human; details: 5 mg/kg oral daily, chronically, six month period
Experimental: A subject presents with Stage V Alzheimer's disease. The subject is treated daily with 5 mg/kg oral doses of N-(3-methyl-1,1-dioxo-1,4-thiazinan-4-yl)-1-[3,4,5-trimethoxy phenyl sulfonyl], chronically.

[5] = test system: Stage IV pancreatic cancer; test: Treatment of pancreatic cancer, patient case (Example 7); type: in vivo, human; details: 10 mg/kg/day tablets every other day for 30 days (15 doses)
Experimental: A subject presents with Stage IV pancreatic cancer. The subject is treated daily with 10 mg/kg/day of N-(3-methyl-1,1-dioxo-1,4-thiazinan-4-yl)-1-[1-phenyl, 1-acetic acid]methane by tablets every other day for 30 consecutive days (15 doses). Upon examination, cancer involvement is found reduced by about 20%.

[6] = test system: end stage liver cancer; test: Liver cancer treatment, patient case (Example 9); type: in vivo, human; details: 10 mg/kg daily orally or IV for 48 days
Experimental: A subject presents with end stage liver cancer refractory to all other treatments. The subject is treated daily with 10 mg/kg of N-(3-methyl-1,1-dioxo-1,4-thiazinan-4-yl)-1-[1-phenyl, 1-furan-2-yl] orally or IV for 48 days.

[7] = test system: Stage IV breast cancer; test: Treatment of breast cancer, patient case (Example 6); type: in vivo, human; details: 10 mg/kg/day orally or IV daily for 15 consecutive days
Experimental: A subject presents with Stage IV breast cancer and axillary lymph node involvement. The subject is treated with 10 mg/kg/day of N-(3-methyl-1,1-dioxo-1,4-thiazinan-4-yl)-1-[1-phenyl, 1-methanol]methane orally or IV daily for 15 consecutive days. Upon examination, cancer involvement is found reduced by about 20%.

[8] = test system: SMS-KCNR neuroblastoma cells; test: cells; details: Homo sapiens, 48 h, read-out: cell viability, mean value
Experimental: SMS-KCNR neuroblastoma cells were incubated for 48 hours with increasing levels of either nifurtimox or RKS-2-62, and cytotoxicity was determined using the Calcein AM cell viability assay. […] SMSKCNR cells were plated in 48 wells plates and treated with 0-20 μg/mL of either RKS-2-62 or nifurtimox for 48 hours. Cell viability was assessed using Calcein AM assay.

[9] = test system: DAOY medulloblastoma cells; test: Calcein AM cell viability assay, DAOY medulloblastoma cells; type: cell-based; details: 48 hours
Description: (§1) For the D283 cell line, viability after exposure to RKS was decreased compared to nifurtimox (P=0.008), with similar results for the DAOY cell line (P=0.026).

[10] = test system: D283 medulloblastoma cells; test: Calcein AM cell viability assay, D283 medulloblastoma cells; type: cell-based; details: 48 hours
Description: as §1

[11] = test system: SMSKCNR cells; test: Reactive oxygen species, carboxylated DCF flow cytometry; type: cell-based, human; details: 90 minutes incubation, vs control
Experimental: RKS-2-62 increases reactive oxygen species in neuroblastoma cells. SMSKCNR cells treated with RKS-2-62 were incubated with carboxyl-DCF. SMSKCNR cells were grown in T25 flasks and incubated in RKS-2-62 for 90 minutes prior to treatment with carboxylated DCF. Cells were collected and analyzed by flow cytometry. […] Control is the left hand peak in grey. RKS-2-62 is the right hand peak. Oxidation of DCF by reactive oxygen species (ROS) causes increased fluorescence, and a lower concentration of RKS-2-62 than of nifurtimox was required to achieve the same effect.

[12] = test system: SMSKCNR cells; test: Neuroblastoma xenograft mouse model, oral dosing in food pellets; details: 3 weeks
Experimental: Nude mice were injected subcutaneously in the flank with 10^7 SMSKCNR cells and tumors were allowed to grow for 7 days. Mice were then fed either control food pellets or pellets containing 50, 100, or 150 mg/kg/day of RKS-2-62 for 3 weeks (4 mice per group). Tumors were harvested and weighed.

[13] = Chloroform/water partition test; type: physicochemical
Experimental: In addition, RKS-2-26 is lipid soluble and likely to cross the blood brain barrier. […] Then 1 mL of distilled water was added and vortexed.

CC1CS(=O)(=O)CCN1NC(=O)c1c(Cl)c2cc(Br)ccc2oc1=O (stereo not shown)
tumor growth upon examination [1]: no further tumor growth is noted

COc1cc2cc(C=NN3CCS(=O)(=O)CC3C)c(=O)oc2cc1OC (stereo not shown)
cancer involvement upon examination [2]: no cancer involvement is found

CC1CS(=O)(=O)CCN1NC(c1ccccc1)c1ccccc1 (stereo not shown) [N-(3-methyl-1,1-dioxo-1,4-thiazinan-4-yl)-1-[1,1-diphenyl]methane]
tumor response ([3]; 15 mg/kg/day orally or IV for 2 weeks): tumor stabilization
reduction of tumor mass ([3]; with further addition of cyclophosphamide and topotecan, 8 weeks): about 50%

COc1cc(S(=O)(=O)NN2CCS(=O)(=O)CC2C)cc(OC)c1OC (stereo not shown) [N-(3-methyl-1,1-dioxo-1,4-thiazinan-4-yl)-1-[1-(3,4,5-trimethoxyphenylsulfonyl]]
progression of the disease [4]: substantially no progression of the disease is noted

CC1CS(=O)(=O)CCN1NC(CC(=O)O)c1ccccc1 (stereo not shown) [N-(3-methyl-1,1-dioxo-1,4-thiazinan-4-yl)-1-[1-phenyl, 1-acetic acid]methane]
reduction of cancer involvement [5]: about 20%

CC1CS(=O)(=O)CCN1N(c1ccccc1)c1ccco1 (stereo not shown) [N-(3-methyl-1,1-dioxo-1,4-thiazinan-4-yl)-1-[1-phenyl, 1-furan-2-yl]]
liver cancer involvement upon examination [6]: no liver cancer involvement is found

CC1CS(=O)(=O)CCN1NC(CO)c1ccccc1 (stereo not shown) [N-(3-methyl-1,1-dioxo-1,4-thiazinan-4-yl)-1-[1-phenyl, 1-methanol]methane]
reduction of cancer involvement [7]: about 20%

CC1CS(=O)(=O)CCN1N=Cc1c(Cl)c2cc(Br)ccc2oc1=O (stereo not shown) [RKS-2-62]
viability at 5 µg/mL [8]: 51.9%
growth inhibition compared with nifurtimox ([9]; 0-10 μg/mL): inhibited the growth of both cell lines in a dose-dependent fashion and to a greater extent than nifurtimox
cytotoxicity at 10 µg/mL ([9]; Homo sapiens, 10 μg/mL, read-out: decrease of viability): > 80%
growth inhibition compared with nifurtimox ([10]; 0-10 μg/mL): inhibited the growth of both cell lines in a dose-dependent fashion and to a greater extent than nifurtimox
cytotoxicity at 10 µg/mL ([10]; 10 μg/mL, read-out: decrease of viability): > 80%
production of ROS (DCF fluorescence) [11]: increase in production of ROS
decrease of tumor weight compared to the control group ([12]; 50 mg/kg/day oral in food pellets): greater than 75%
decrease of tumor weight compared to the control group ([12]; 100 mg/kg/day oral in food pellets): greater than 75%
decrease of tumor weight compared to the control group ([12]; 150 mg/kg/day oral in food pellets): greater than 75%
tolerability compared with nifurtimox ([12]; mice, oral): better tolerated in mice than nifurtimox
lipid solubility [13]: lipid soluble
distribution between chloroform layer and aqueous layer ([13]; 10 μg/μL in chloroform, 1 mL distilled water added, vortexed): remained solely in the chloroform layer and not the aqueous layer
solubility in chloroform ([13]; solution of 10 μg/μL): shown to dissolve in chloroform

CC1CS(=O)(=O)CCN1/N=C\c1ccc([N+](=O)[O-])o1 (stereo not shown) [nifurtimox, reference compound]
viability at 5 µg/mL [8]: 88.4%
